# What was measured:
# H69AR = experiment: Cytotoxicity against human NCI-H69AR cells by SRB method; type: functional, cell-based
# MDA-MB-231 = experiment: Cytotoxicity against human MDA-MB-231 cells by SRB method; type: functional, cell-based
# ASPC1 = experiment: Cytotoxicity against human ASPC1 cells by SRB method; type: functional, cell-based
# [1] = Cytotoxicity against human L02 cells by SRB method; type: toxicity, cell-based
# K562 = experiment: Cytotoxicity against human K562 cells by MTT method; type: functional, cell-based
smiles,measurement,setting,value
CS[C@@]12CC3=COC=C[C@H](OC(C)=O)[C@H]3N1C(=O)[C@]1(SC)CC3=COC=C[C@H](OC(C)=O)[C@H]3N1C2=O,IC50,H69AR,> 30 µM
same,IC50,MDA-MB-231,> 30 µM
same,IC50,ASPC1,> 30 µM
same,IC50,[1],> 30 µM
same,IC50,K562,> 30 µM
CS[C@@]12CC3=COC=C[C@H](O)[C@H]3N1C(=O)[C@]1(SC)CC3=COC=C[C@H](O)[C@H]3N1C2=O,IC50,H69AR,> 30 µM
same,IC50,MDA-MB-231,> 30 µM
same,IC50,ASPC1,> 30 µM
same,IC50,[1],> 30 µM
same,IC50,K562,> 30 µM
CS[C@@]12CC3=COC=C[C@H](OC(C)=O)[C@H]3N1C(=O)[C@]1(SC)CC3=COC=C[C@H](O)[C@H]3N1C2=O,IC50,H69AR,> 30 µM
same,IC50,MDA-MB-231,> 30 µM
same,IC50,ASPC1,> 30 µM
same,IC50,[1],> 30 µM
same,IC50,K562,> 30 µM
CS[C@@]12CC3=COC=C[C@H](OC(=O)CC(C)=C(C)C)[C@H]3N1C(=O)[C@]1(SC)CC3=COC=C[C@H](O)[C@H]3N1C2=O,IC50,H69AR,> 30 µM
same,IC50,MDA-MB-231,> 30 µM
same,IC50,ASPC1,> 30 µM
same,IC50,[1],> 30 µM
same,IC50,K562,> 30 µM
CS[C@@]12CC3=COC=C[C@H](OC(C)=O)[C@H]3N1C(=O)[C@]1(SC)CC3=COC=C[C@H](OC(=O)CC(C)=C(C)C)[C@H]3N1C2=O,IC50,H69AR,> 30 µM
same,IC50,MDA-MB-231,29 µM
same,IC50,ASPC1,> 30 µM
same,IC50,[1],> 30 µM
same,IC50,K562,> 30 µM
CC(C)=C(C)CC(=O)O[C@H]1C=COC=C2C[C@@]34SSSS[C@]5(CC6=COC=C[C@H](O)[C@H]6N5C3=O)C(=O)N4[C@@H]21,IC50,H69AR,5.9 µM
same,IC50,MDA-MB-231,3.7 µM
same,IC50,ASPC1,13 µM
same,IC50,[1],8.5 µM
same,IC50,K562,2.3 µM
O=C(Cc1ccccc1)O[C@H]1C=COC=C2C[C@@]34SSSS[C@]5(CC6=COC=C[C@H](O)[C@H]6N5C3=O)C(=O)N4[C@@H]21,IC50,H69AR,3.6 µM
same,IC50,MDA-MB-231,4.3 µM
same,IC50,ASPC1,25 µM
same,IC50,[1],18 µM
same,IC50,K562,3.1 µM
CC(=O)O[C@H]1C=COC=C2C[C@@]34SS[C@]5(CC6=COC=C[C@H](O)[C@H]6N5C3=O)C(=O)N4[C@@H]21 [ARANOTIN],IC50,H69AR,1.7 µM
same,IC50,MDA-MB-231,0.7 µM
same,IC50,ASPC1,11 µM
same,IC50,[1],16 µM
same,IC50,K562,1.4 µM
COc1cccc2c1C(=O)c1c(O)c3c(c(O)c1C2=O)C[C@@](O)(C(=O)CO)C[C@@H]3O[C@H]1C[C@H](N)[C@H](O)[C@H](C)O1 [DOXORUBICIN],IC50,H69AR,< 1 µM
same,IC50,MDA-MB-231,< 1 µM
same,IC50,ASPC1,< 1 µM
same,IC50,[1],< 1 µM
same,IC50,K562,< 1 µM

# Source: ChEMBL document CHEMBL5370612, “Cytotoxic Epipolythiodioxopiperazines from the Deep-Sea-Derived Fungus Exophiala mesophila MCCC 3A00939” (J Nat Prod, 2023)
